Here are results for 9 substances from patent publication US20100247590A1, “Peptide-Based Systems For Delivery Of Cosmetic Agents” (JOHNSON & JOHNSON, priority 2009, published 2010).

Where two headings read alike, the source gives them in different places. No end group written: not given here.

The conditions of assay [1]: fluorescence microscopy, FIG. 1.
Method: A biotinylated peptide and streptavidin-coated bead system was used to illustrate the coupling of beads to hair in accordance with the methods and compositions of this invention.
A human hair sample was placed in an aqueous solution containing 20 mM of HCP5 dimer peptide (SEQ ID NO: 204) derived in accordance with the methods set forth herein. […] The HCP5 dimer was purchased from American Peptide Co., Inc. (Sunnyvale, Calif.) in both biotinylated (SEQ ID NO: 205) and non-biotinylated (SEQ ID NO: 204) versions (a single lysine residue was added to the C-terminus of the biotinylated version to facilitate biotin coupling).
Hair samples were pretreated by exposing the hair samples to either the biotinylated or the non-biotinylated peptide. Ten strands of natural dark brown hair (International Hair Importers), three inches in length, were pre-washed with 2% SLES for 30 seconds, then rinsed extensively with DI water. The hair strands were then immersed in 10 mL of a 5-20 micromolar solution of peptide for up to one hour. Ten hair samples were exposed to the biotinylated peptide and ten hair samples were exposed to non-biotinylated peptide. […]
After the incubation period ended, fluorescence microscopy was used to view the binding of 40 nm fluorescently-labeled streptavidin-coated polystyrene particles to hair.
Assay [2] is described as follows: Visual color assessment of hair treated with peptide then streptavidin-coated iron oxide beads (sequential coloring). The settings on record: for perceptible color: Tables 17-19; for color intensity value (0-5, 0 no color deposition, 5 deepest color): Table 15, streptavidin-coated iron oxide beads 500 nm.
Method: A biotinylated peptide and streptavidin-bead system was used to color hair. Sequential deposition was achieved by the following process.
Miniature hair tresses of approximately 1 inch in length containing 100% unpigmented hair were placed in an aqueous solution with 20 mM of peptides (in DI water or Tris Buffered Saline, pH 7.2, 5-150 mM ionic strength), for up to one hour at room temperature, derived in accordance with the methods set forth herein.
Hair samples were pretreated by exposing the hair to different peptides. The peptide created a layer on the hair. Hair samples with a peptide layer were rinsed with SLES solution to remove excess peptide. Next, the peptide-treated hair samples were incubated with streptavidin tagged iron oxide particles (Bangs Laboratories, Inc., Fishers, Ind.; Ademtech, Inc., Pessas, France) to allow the binding between biotin and streptavidin or between the streptavidin-binding domain in HC260 and streptavidin. Particles were purchased in dispersed form and were diluted to 0.025-1 wt % by adding a specified amount of either DI water or Coupling Buffer from Ademtech. Binding was permitted to take place during an incubation period for up to 24 hours at room temperature (˜22° C.) in the dark. Samples were continuously inverted end-over-end during the binding duration incubation period.
A color scale for the associated color intensity of iron oxide treated hair was defined as (0-5), where 0 is no color deposition and 5 is the deepest color.
For assay [3] the following is noted: 200 nm streptavidin-coated iron oxide beads; FIGS. 4A and 4B. An excerpt:
Humans can perceive color that is in about the 400 nm to 700 nm range. Ultraviolet light, i.e., 200-400 nm is not visible to humans.

Another assay has as its target streptavidin (Streptomyces avidinii, UniProt P22629). The assay can be described thus: biochemical.
Assay [4] can be described thus: Peptide-mediated binding of Co-NTA magnetic beads to gray hair, visual rating on magnet. Also noted: species or system human. Conditions: Table 11; peptide 0.2 μM. The protocol: Approximately 5 mg of 5 mm long hair strands (90% gray, human) were transferred to 2-mL microcentrifuge tubes. Approximately 1 mL of TBST0.1 buffer (25 mM Tris, 150 mM NaCl, pH7.2, with 0.1% TWEEN®-20) or the same buffer including varying concentrations of HC263 peptide was added to the hair.
The mixtures were shaken on a Nutator for one hour at room temperature (˜22° C.). The hairs were washed three times with TBST0.5 buffer (25 mM Tris, 150 mM NaCl, pH 7.2, with 0.5% TWEEN®-20). After washing, the hairs were resuspended in 900 μL Talon buffer (50 mM sodium phosphate, pH 8.0, 300 mM sodium chloride, 0.01% TWEEN®-20). A subset of hair/peptide conjugates were washed additionally one time with 1 mL of 0.25% SLES (Sodium Lauryl Ether Sulfate) for 5 min at room temperature on the Nutator, then washed two times with 1 mL TBST0.1 buffer. Approximately 0.2 mg of TALON™ beads (DYNABEADS® TALONT™, Invitrogen, Catalog#101.01D) were washed twice with TALON™ buffer on the DYNAL® MPC™ magnet and added to each reaction in 100 μL TALON™ buffer. […]
Beads binding to the hair were expected to co-migrate on the sides of the tubes once applied to the magnet. The strength of binding was visually assessed and rated on a scale of 0 (little or no observed binding) to 5 (highest amount of observed binding). […]

For assay [5] the following is noted: biotinylated peptide, streptavidin-HRP ELISA. An excerpt:
See, e.g., Example 3 of U.S. Patent Application Publication 2005/022683; hereby incorporated by reference. The MB50 provides an indication of the strength of the binding interaction or affinity of the components of the complex. […] For example, a peptide with a nanomolar (nM) MBso binds more tightly than a peptide with a micromolar (μM) MB50.
The purpose of this Example was to determine the affinity and specificity of the various hair-binding peptides for hair and pigment surfaces, measured as MB50 values, using an ELISA assay. Each of the short, linear peptides were originally identified using phage display. Unless otherwise indicated, the sequences provided in Example 2 include a C-terminal lysine residue that was biotinylated for detection purposes.
The MB50 measurements of biotinylated peptides binding to hair and to red iron oxide particles (Unipure Red from Sensient Technologies, Milwaukee, Wis.) were made using hair bundles. The hair samples were assembled in bundles consisting of 100 hairs about 1 cm long which were bundled together using narrow tape at one end. The hair bundles were incubated in SUPERBLOCK® blocking buffer (Pierce Chemical Co., Rockford, Ill.) for 1 hour at room temperature (˜22° C.), followed by 3 washes with TBST (TBS in 0.05% TWEEN® 20). Peptide binding buffer consisting of various concentrations of biotinylated peptide in TBST and 1 mg/mL BSA was added to the hair bundles and incubated for 1 hour at room temperature, followed by 6 TBST washes. Then, the streptavidin-horseradish peroxidase (HRP) conjugate (Pierce Chemical Co., Rockford, Ill.) was added to each well (1.0 μg per well), and incubated for 1 h at room temperature, followed by 6 times of washes with TBST. All hair bundles were transferred to new tubes and then the color development and the absorbance measurements were performed following standard protocols. The results were plotted as A450 versus the concentration of peptide using GraphPad Prism 4.0 (GraphPad Software, Inc., San Diego, Calif.).

[6] abbreviates: Table 17, 200 nm particles, initial, before washing with water.
The mark [7] stands for this setting: Table 18, 200 nm particles, after washing with water.
Where [8] appears, read: Table 18, 500 nm particles, after washing with water.
Where [9] appears, read: Table 19, 200 nm particles, after 0.25% SLES wash.

streptavidin, sequence (P22629 25-183): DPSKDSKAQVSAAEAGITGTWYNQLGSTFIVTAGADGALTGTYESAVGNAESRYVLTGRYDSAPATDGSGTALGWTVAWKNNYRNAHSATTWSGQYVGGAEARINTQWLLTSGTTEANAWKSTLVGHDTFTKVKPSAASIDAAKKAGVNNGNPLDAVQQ

On to HCP5-GGSGPGSGG-HCP5-K [(HCP5)2-biotin], for which, in assay [1], the “binding of 40 nm fluorescently-labeled streptavidin-coated polystyrene particles to hair” value is “bound the particles to hair”. The perceptible color entry is “did not exhibited perceptible color” in assay [2] (200 nm beads) and “exhibited perceptible color” in assay [2] (500 nm beads). In addition, the “color intensity value (0-5, 0 no color deposition, 5 deepest color)” value in assay [2] is recorded as 4. The “color measurement (0-5 color scale)” value in assay [2] (setting [6]) is recorded as 0; in assay [2] (setting [7]), 0; in assay [2] (setting [8]) it was 3; in assay [2] (setting [9]) it was 0. In assay [3], the “deposition of beads on hair” value is listed as 200 nm beads were deposited on the hair.
The substance MLSENWLTNHPQN [SB33N] displayed a Kd at streptavidin of about 100 µM.
On to “GSDPG-IB5A-GGGGSGGGGSG-HHHHHH (GSDPGTPPELLHGAPRSGGGGSGGGGSGHHHHHH) [HC205]”, for which, in assay [4], the “Strength of binding (5 highest, 0 lowest)” value amounted to 0.
In the case of “GSDPG-Gray3-GGG-Gray3-GGGGSGGGGSG-HHHHHH (GSDPGHDHKNQKETHQRHAAGGGHDHKNQKETHQRHAAGGGGSGGGGSGHHHHHH) [HC214]”, the “Strength of binding (5 highest, 0 lowest)” value in assay [4] is given as 0.
On to THSTHNHGSPRHTNADAGNPK-Biotin [HCP1], for which the MB50 in assay [5] (substrate 90% gray hair) worked out at 0.044 µM; in assay [5] (substrate Unipure Red particle) it was 9.8 µM.
Turning to HCP5-GGSGPGSGG-HCP5 [(HCP5)2], the “color intensity value (0-5, 0 no color deposition, 5 deepest color)” value in assay [2] was 0. Moreover, the “color scale score (0-5)” value in assay [2] (Table 16, streptavidin-coated iron oxide beads, sequential coloring method) is on record as 0. For the same substance, the “color measurement (0-5 color scale)” value in assay [2] (setting [6]) was found to be 0; in assay [2] (Table 17, 500 nm particles, initial, before washing with water), 0; in assay [2] (setting [7]) it was 0; in assay [2] (setting [8]), 0; in assay [2] (setting [9]), 0; in assay [2] (Table 19, 500 nm particles, after 0.25% SLES wash) it was 0.
On to TPPELAHTPHHLAQTRLTDRK-Biotin [Hair4], for which the MB50 in assay [5] (substrate 90% gray hair) is 0.15 µM; in assay [5] (substrate Unipure Red particle), 5 µM.
Taken in the same sequence, the figures for AQSQLPDKHSGLHERAPQRYK-Biotin [Hair2] were 0.25 µM and 6.8 µM.
The like results for HINKTNPHQGNHHSEKTQRQK-Biotin [MEA4] were, in that order, 0.061 µM and 8.7 µM.
